# Results as given in patent US8609147B2, “Use of deuterium oxide for treatment of herpes virus-based diseases of the skin” (D2 Bioscience Group Ltd., priority 2007, dated 2013).
# Test system: HSV-1
# Test: Efficacy in a cell culture test: HSV-1 infected human keratinocyte primary cultures, virus count by transmission electron microscopy
# Type: cell-based
# Conditions: cell culture medium containing 35 wt % D2O; 3 days after infection with HSV-1; 20 keratinocyte cells evaluated
# Method: After a closed monolayer had formed in the cell culture dish and after desmosomes had developed, human keratinocyte primary cultures produced according to H. M. Reinl et al. (J. Invest. Dermatol. 1995; 105(2):291-5) were incubated with cell culture medium additionally containing 35 wt % D2O (sample) and/or H2O (controls). On the day of incubation, the sample and controls were infected with HSV-1. The infection was accomplished by adding the virus to the cell culture medium (10^7 viruses per cell culture dish in 1 mL cell culture medium). After 3 days (after infection), the sample and control groups were tested for the average number of viral particles per cell. The virus count was performed using a transmission electron microscope according to standard fixation and staining methods (glutaraldehyde and osmium tetroxide). In each case, 20 randomly selected keratinocyte cells from the sample group and the control group were evaluated with regard to the viral particles contained in them.
structure (smiles),measurement,value
"[2H]O[2H] [D2O, deuterium oxide]",average virus count (viral particles per cell),10±4
